Consider one molecule from patent US20230338463A1, “ICD PEPTIDE AND USE THEREOF FOR HAVING CYTOTOXIC ACTIVITY ON CANCER CELLS” (NATIONAL TSING HUA UNIVERSITY, priority 2022, published 2023).

Non-standard residues stand in square brackets, D forms with d. Residues, ends and D or L forms follow the SMILES beside them. 2Nal = N[C@@H](Cc1ccc2ccccc2c1)C(=O)O

In data set [1] the test system is CGNHC9 cells (oral squamous cell carcinoma). The conditions noted are these: human, 24 h. The text has this: (§1) Three non-small cell lung cancer cell lines (H1975, A549, PC9) and two oral cancer cell lines (CGNHC9, OECM-1) were used in the present invention. H1975 is the non-small cell lung carcinoma tissue, A549 is the adenocarcinomic alveolar basal epithelial cells and PC9 is the non-small cell lung cancer with EGFR mutation. CGNHC9 and OECM-1 cell lines refer to oral squamous cell carcinoma and gingival epidermoid carcinoma respectively. The abovemetioned cell lines were derived from human origin and being cultured in the humidified incubator containing 5% CO2 at 37° C. CGNHC9 cell line was cultured in Dulbecco’s modified Eagle’s medium (GIBCO Life Technologies Corporation, NY, USA) with 10% fetal bovine serum (FBS), 2 mM L-glutamine and 1% penicillin/ streptomycin and Roswell Park Memorial Institute 1640 (RPMI 1640, GIBCO Life Technologies Corporation, NY, USA) medium with 10% fetal bovine serum (FBS), 2 mM L-glutamine and 1% penicillin/ streptomycin was used as the culture medium for the rest of the cell lines.
(§2) The anticancer activity of ICD peptides include, not limited, SEQ ID NO: 1 and its derivative peptides (SEQ ID NO: 2, SEQ ID NO: 3, SEQ ID NO: 4, and SEQ ID NO: 5) was using the 3-(4,5-Dimethyl-2-thiazolyl)-2,5-diphenyl-2H-tetrazolium bromide (MTT, Sigma Aldrich, St. Louis, MO, USA) colorimetric assay for cell viability test. The cells include, not limited, H1975, A549, PC9, CGNHC9, OECM-1, MN-11 and HFW cells/cell lines.
(§3) The cells were seeded in the 96-well plate at 5000 cells/well under the environment of humidified 5% CO2 and the temperature of 37° C. for 24 hours. The medium was removed from the well before the fresh medium containing different concentrations of ICD peptides was added and incubated for 24 hours. Medium with PBS solution was used as control group. All ICD peptides were diluted serially from 100 µM to 0.78 µM in ddH2O before adding in the medium. After 24 hours of ICD peptide treatment, fresh medium with 10% MTT solution (5 mg/mL) was incubated for additional 4 hours in advance of dissolving the formazan crystal in 100 µL DMSO (Dimethyl sulfoxide, Sigma Aldrich) solution. The calculation of cell survival rate was completed by measuring the absorbance at 570 nm using microplate reader (TECAN Sunrise ELISA Reader).
(§4) The cell survival was calculated from the treated cells relative to the control (100% viable cells) using the mean of three independent experiments and expressed as a 50% inhibitory concentration (IC50).
(§5) The percentage of cell viability was calculated using the following formula: […]
(§6) The half inhibition concentration (IC50) is the concentration required by the drug to reach fifty percent inhibition. In one embodiment, the SEQ ID NO: 1 and its derivative peptides (SEQ ID NO:2, SEQ ID NO:3, SEQ ID NO:4, SEQ ID NO: 5) was used for IC50 test via MTT colorimetric assay.

Data set [2] relates to OECM-1 cells (gingival epidermoid carcinoma). The note with it: human, 24 h.
Excerpt: as §1, §2, §3, §4, §5, §6

For data set [3], the system named is PC9 cells (non-small cell lung cancer with EGFR mutation). The conditions noted are these: human, 24 h.
Excerpt: as §1, §2, §3, §4, §5, §6

Another data set relates to PC 9 cells. In words: Luciferin-luciferase extracellular ATP, PC 9. It counts as cell-based, human. The note with it: PC 9, 2 × IC50, peak at 0.5 hour. On the procedure: The ATP release from cancer cells were measured using the luciferin-luciferase assay as ATP release had been the iconic feature for immunogenic cell death (ICD).
PC 9 cells were seeded in the 96 well plate at the density of 10,000 cells/ well and allowed to adhere for 48 hours in the condition described previously for MTT assay. […] All of the three ICD peptides were dissolved in the serum-free RPMI 1640 medium for the cells’ treatment. Cells were treated with serum-free RPMI 1640 medium containing PBS as the control group. After being treated for 0.5, 1, 1.5, and 2 hours, the supernatant of cells was collected separately and stored at -20° C. before the ATP assay. The aliquot of reconstituted rL/L reagent in the ENLITEN ATP assay kit (Promega, Madison, WI, USA) was incubated at room temperature for one hour before using. The collected supernatant of the cells was centrifuged at the speed of 500 xg for 10 minutes and took out 100 µL of the supernatant into the black 96 well plate with clear bottom to avoid cross-talk between wells. […] Measurement of the extracellular ATP chemiluminescence was completed using the Wallac VICTOR 3 Multilabel plate reader (PerkinElmer, Shelton, CT, USA)

A further data set deals with MN-11 cells. In words: Extracellular cytochrome c ELISA, MN-11. It counts as cell-based, murine. Here is the method: The cells were treated with 2× IC50 Nal-P-113 (FIG. 8A), Bip-P-113 (FIG. 8B), and Dip-P-113 (FIG. 8C) for 0.5, 1, 1.5, 2, and 4 h, respectively. Untreated cells were used as a control. Results are presented as mean ± SD of three independent experiments. **P<0.01; ***P<0.001 compared with control.
Not only that the amount of supernatant cytochrome c release from MN-11 cells was measured by ELISA assay to reveal peptide induced mitochondrial DAMPs. Five time points (0.5, 1, 1.5, 2 and 4 hours) were used to quantify the amount of cytochrome c released and the results were shown in FIGS. 8A-8C. Nal-P-113 (FIG. 8A) and Dip-P-113 (FIG. 8C) induced a relatively high amount of cytochrome c compared to Bip-P-113 (FIG. 8B). In the Nal-P-113 (FIG. 8A) treated group, the amount of cytochrome c release has come to a maximal value of nearly 25 ng/mL at 2 hours while the minimum value of 10 ng/mL at 30 minutes has been observed. The highest amounts of cytochrome c detected in the supernatant for Dip-P-113 (FIG. 8C) was around 35 ng/mL at 4 hours and the lower amount around 18 ng/mL at 30 minutes.
(ELISA stands for enzyme-linked immunosorbent assay.)

`CC(=O)N[C@@H](C)C(=O)N[C@@H](CCCCN)C(=O)N[C@@H](CCCNC(=N)N)C(=O)N[C@@H](Cc1ccc2ccccc2c1)C(=O)N[C@@H](Cc1ccc2ccccc2c1)C(=O)NCC(=O)N[C@@H](Cc1ccc(O)cc1)C(=O)N[C@@H](CCCCN)C(=O)N[C@@H](CCCNC(=N)N)C(=O)N[C@@H](CCCCN)C(=O)N[C@@H](Cc1ccccc1)C(=O)N[C@@H](Cc1ccc2ccccc2c1)C(N)=O` [SEQ ID NO:3, Ac-AKR Nal Nal GYKRKFNal-NH2] (Ac-AKR[2Nal][2Nal]GYKRKF[2Nal]-NH2): the cell viability percentage entry in data set [1], in data set [2] and in data set [3] was “lower than 20%” throughout. In the data set with PC 9 cells, the “ATP release, highest value (relative light unit)” value was “around 10,000 RLU”. In addition, the “cytochrome c release, minimum / lower amount” value in the data set on MN-11 cells (MN-11, 2× IC50, at 30 minutes) is on record as 10 ng/mL. Moreover, the “cytochrome c release, maximal value” in the data set with MN-11 cells (MN-11, 2× IC50, at 2 hours) is reported as approximately 25 ng/mL.
